Experimental data taken from PMC7765794 (Nutrients, 2020).

Key:
[1] = system: Jurkat cells; assay: Cell growth and apoptosis in Jurkat cells; assay type: cell-based, human; settings: for growth of Jurkat cells (in words): 100 µM baicalein or 75 µM myricetin (Figure S5); for apoptosis of Jurkat cells (in words): 100 µM baicalein or myricetin (Figure S5)
Method: The human promyelocytic leukemia HL-60 and human acute Jurkat T cell leukemia cell lines were grown in 90% RPMI 1640 medium supplemented with 10% fetal bovine serum (FBS) at a temperature of 37 °C under a humidified 5% CO2 atmosphere. These cell lines were approved by short tandem repeat profiling, and the cells were passaged for no more than 2 months.
Cells (2 × 10^6/mL) were seeded into 60-mm Petri dishes and incubated at 37 °C. The cells were harvested by treatment with 5 µM rottlerin. Viable cells were counted using the trypan blue exclusion method. The cell suspension was mixed on a slide with an equal volume of acridine orange solution (10 mg/mL). Green fluorescence was detected between 500 and 525 nm with a fluorescence microscope (Zeiss, Oberkochen, Germany).
Cells were harvested and lysed overnight in digestion buffer (0.5% sarkosyl, 0.5 mg/mL proteinase K, 50 mM Tris-HCl, pH 8.0 and 10 mM ethylenediamine tetraacetic acid (EDTA) at 55 °C). Subsequently, cells were treated with 0.5 μg/mL RNase A for 2 h. Genomic DNA was extracted by phenol/chloroform/isoamyl alcohol extraction and analyzed by gel electrophoresis using 2% agarose.
(C) and (D) Apoptotic bodies […]
(1 picture or pasted object on this page, not shown here)

[2] = system: HL-60 cells; assay: Cell viability (trypan blue), acridine orange staining and DNA fragmentation in HL-60 cells; assay type: cell-based, human; settings: for apoptosis in HL-60 cells (apoptotic bodies, DNA fragmentation): 50 μM baicalein or up to 75 µM myricetin, 24 h; for IC50: Homo sapiens, HL-60, after 24 h, viable cell count
Method: The human promyelocytic leukemia HL-60 and human acute Jurkat T cell leukemia cell lines were grown in 90% RPMI 1640 medium supplemented with 10% fetal bovine serum (FBS) at a temperature of 37 °C under a humidified 5% CO2 atmosphere. These cell lines were approved by short tandem repeat profiling, and the cells were passaged for no more than 2 months. Cells (2 × 10^6/mL) were seeded into 60-mm Petri dishes and incubated at 37 °C. The cells were harvested by treatment with 5 µM rottlerin. Viable cells were counted using the trypan blue exclusion method. The cell suspension was mixed on a slide with an equal volume of acridine orange solution (10 mg/mL). Green fluorescence was detected between 500 and 525 nm with a fluorescence microscope (Zeiss, Oberkochen, Germany). Cells were harvested and lysed overnight in digestion buffer (0.5% sarkosyl, 0.5 mg/mL proteinase K, 50 mM Tris-HCl, pH 8.0 and 10 mM ethylenediamine tetraacetic acid (EDTA) at 55 °C). Subsequently, cells were treated with 0.5 μg/mL RNase A for 2 h. Genomic DNA was extracted by phenol/chloroform/isoamyl alcohol extraction and analyzed by gel electrophoresis using 2% agarose.

[3] = system: ODC-empty HL-60 cells; assay: Cell growth and apoptosis in HL-60 cells with ODC-empty vector; assay type: cell-based, human; settings: 50 μM baicalein or 75 µM myricetin; for cell growth of ODC-empty HL-60 cells (in words): 24 h
Method: (§1) Cells (2 × 10^6/mL) were seeded into 60-mm Petri dishes and incubated at 37 °C. The cells were harvested by treatment with 5 µM rottlerin. Viable cells were counted using the trypan blue exclusion method. The cell suspension was mixed on a slide with an equal volume of acridine orange solution (10 mg/mL). Green fluorescence was detected between 500 and 525 nm with a fluorescence microscope (Zeiss, Oberkochen, Germany). The ODC-empty vector (pcDNA3-ODC-empty) and ODC-overexpressing vector (pcDNA3-ODC-WT) were transfected into parental HL-60 cells according to calcium phosphate-mediated transfection. Stably transfected cells were selected with the antibiotic G418 (400 μg/mL). After three weeks, the isolated G418-resistant clones were individually selected to analyze the protein expression of ODC in the cells. Cells were harvested and lysed overnight in digestion buffer (0.5% sarkosyl, 0.5 mg/mL proteinase K, 50 mM Tris-HCl, pH 8.0 and 10 mM ethylenediamine tetraacetic acid (EDTA) at 55 °C). Subsequently, cells were treated with 0.5 μg/mL RNase A for 2 h. Genomic DNA was extracted by phenol/chloroform/isoamyl alcohol extraction and analyzed by gel electrophoresis using 2% agarose.

[4] = molecular target: T1, human ODC (Homo sapiens, UniProt P11926); assay: ODC enzyme activity assay and inhibition study (CO2-L3K coupled spectrophotometric assay); assay type: biochemical; settings: for IC50: read-out: IC50 to ornithine decarboxylase (ODC); for ODC suppression activity (in words): purified human ODC enzyme activity;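 as to all read-outs here: His-tagged human ODC expressed in Escherichia coli, activity followed as decarboxylation coupled via PEP carboxylation and malate formation to NADH analog oxidation, absorbance drop at 405 nm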
T1 construct: His-tag (N); made in house; host or cells: Escherichia coli JM109
T1 sequence (P11926 1-461): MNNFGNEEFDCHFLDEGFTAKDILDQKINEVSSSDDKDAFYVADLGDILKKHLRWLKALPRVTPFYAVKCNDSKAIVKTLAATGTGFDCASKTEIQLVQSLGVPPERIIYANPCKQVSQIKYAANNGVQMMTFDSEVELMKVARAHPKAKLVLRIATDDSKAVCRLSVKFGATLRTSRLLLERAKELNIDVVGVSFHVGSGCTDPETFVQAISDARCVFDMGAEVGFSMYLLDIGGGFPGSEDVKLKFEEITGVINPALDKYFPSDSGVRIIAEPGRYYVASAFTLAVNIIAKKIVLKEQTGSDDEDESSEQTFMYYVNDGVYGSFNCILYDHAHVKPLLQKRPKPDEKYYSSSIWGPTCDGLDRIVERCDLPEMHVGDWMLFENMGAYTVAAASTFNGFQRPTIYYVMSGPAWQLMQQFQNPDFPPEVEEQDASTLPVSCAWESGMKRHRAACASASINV

[5] = system: ODC-WT HL-60 cells; assay: Cell growth and apoptosis in ODC-overexpressing HL-60 cells; assay type: cell-based, human; settings: for apoptosis in ODC-WT HL-60 cells (in words): 50 μM baicalein or 75 µM myricetin
Method: as §1, with “The cells were harvested by treatment with 5 µM rottlerin.” left out

[6] = purified human ODC, 37 °C, 10 mM ornithine, 0.2 mM PLP, n = 3

## O=c1cc(-c2ccccc2)oc2cc(O)c(O)c(O)c12 [Baicalein, 5,6,7-trihydroxyflavone]
[1]
  growth of Jurkat cells (in words): suppressed the growth of Jurkat cells
  apoptosis of Jurkat cells (in words): induced cellular apoptosis with DNA fragmentation
[2]
  apoptosis in HL-60 cells (apoptotic bodies, DNA fragmentation): exhibited apoptosis
  IC50: ~50 µM
[2]; baicalein 0–70 μM
  cell death / growth suppression in HL-60 cells (in words): cell death was dose-dependent
[3]
  apoptosis in ODC-empty HL-60 cells (in words): appearance of apoptotic bodies and DNA fragmentation
  cell growth of ODC-empty HL-60 cells (in words): growth arrest
[4]; [6]
  IC50: 0.88 µM
[4]; with respect to substrate L-ornithine, noncompetitive fit, read-out: Ki(ornithine) against ODC
  Ki: 0.64 ± 0.18 µM
[5]
  apoptosis in ODC-WT HL-60 cells (in words): normal cell morphology and slight DNA fragmentation
[5]; 50 μM baicalein, 24 h
  cell growth of ODC-WT HL-60 cells (in words): growth arrest

## O=c1c(O)c(-c2cc(O)c(O)c(O)c2)oc2cc(O)cc(O)c12 [Myricetin]
[1]
  growth of Jurkat cells (in words): suppressed the growth of Jurkat cells
  apoptosis of Jurkat cells (in words): induced cellular apoptosis with DNA fragmentation
[2]
  apoptosis in HL-60 cells (apoptotic bodies, DNA fragmentation): induced apoptosis
  IC50: ~75 µM
[3]
  apoptosis in ODC-empty HL-60 cells (in words): induced apoptotic bodies in ODC-empty cells
  cell growth of ODC-empty HL-60 cells (in words): more effective than in ODC-WT HL-60 cells
[4]; [6]
  IC50: 7.3 µM
[5]
  apoptosis in ODC-WT HL-60 cells (in words): but not in ODC-WT HL-60 cells

## O=C1C[C@@H](c2ccccc2)Oc2cc(O)cc(O)c21 [Pinocembrin]
[4]
  ODC suppression activity (in words): little ODC suppression activity
[4]; [6]
  IC50 to ornithine decarboxylase (ODC): No inhibition

## Cc1ncc(CO)c(CN)c1O [Pyridoxamine, reference compound]
[4]
  ODC suppression activity (in words): cannot inhibit ODC activity
[4]; listed as pyridoxamine
  ODC suppression activity (in words): none of these compounds were able to suppress ODC activity

## O=c1c(O)c(-c2ccc(O)c(O)c2)oc2cc(O)cc(O)c12 [Quercetin]
[4]; IC50 greater than that of myricetin
  IC50 relative to that of myricetin: 10 fold
[4]; [6]
  IC50: 82 µM

## C[C@@H]1O[C@@H](OC[C@H]2O[C@@H](Oc3c(-c4ccc(O)c(O)c4)oc4cc(O)cc(O)c4c3=O)[C@H](O)[C@@H](O)[C@@H]2O)[C@H](O)[C@H](O)[C@H]1O [Rutin]
[4]
  ODC suppression activity (in words): did not display apparent ODC-suppressing activity
[4]; [6]
  IC50: > 120 µM

## Oc1ccc2c(c1)OCO2 [Sesamol, reference compound]
[4]
  ODC suppression activity (in words): cannot inhibit ODC activity
[4]; listed as sesamol
  ODC suppression activity (in words): none of these compounds were able to suppress ODC activity

## Cn1cnc2c1c(=O)[nH]c(=O)n2C [Theobromine, reference compound]
[4]
  ODC suppression activity (in words): cannot inhibit ODC activity
[4]; listed as theobromine
  ODC suppression activity (in words): none of these compounds were able to suppress ODC activity

## Cn1c(=O)c2[nH]cnc2n(C)c1=O [Theophylline, reference compound]
[4]
  ODC suppression activity (in words): cannot inhibit ODC activity
[4]; listed as theophylline
  ODC suppression activity (in words): none of these compounds were able to suppress ODC activity
